Experimental data: patent US6737383B1, “Herbicidal oxadiazolidines” (priority 1999, dated 2004)

Tests used:
Alexandergrass = assay: Test D Alexandergrass; assay type: in vivo, Brachiaria plantaginea; conditions: Preemergence, 0 to 100 scale
How it was run: (§1)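 Scoring used a 0–100 visual injury scale, with 0 meaning no effect and 100 complete control, assessed 14–21 days after application alongside untreated pots. Preemergence treatments went onto sandy loam surfaces of separately potted seeds within a day of sowing.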

tall mallow = assay: Test D tall mallow; assay type: in vivo, Malva sylvestris; conditions: Preemergence, 0 to 100 scale
How it was run: as §1

guineagrass = assay: Test D guineagrass; assay type: in vivo, Panicum maximum; conditions: Preemergence, 0 to 100 scale
How it was run: as §1

Green foxtail [1] = assay: Test D green foxtail; assay type: in vivo; conditions: Preemergence, 0 to 100 scale
How it was run: as §1

purple nutsedge = assay: Test D purple nutsedge; assay type: in vivo, Cyperus rotundus; conditions: Preemergence, 0 to 100 scale
How it was run: as §1

common ragweed = assay: Test D common ragweed; assay type: in vivo, Ambrosia elatior; conditions: Preemergence, 0 to 100 scale
How it was run: as §1

itchgrass = assay: Test D itchgrass; assay type: in vivo, Rottboellia exaltata; conditions: Preemergence, 0 to 100 scale
How it was run: as §1

Spanishneedles = assay: Test D Spanishneedles; assay type: in vivo, Bidens bipinnata; conditions: Preemergence, 0 to 100 scale
How it was run: as §1

common groundsel = assay: Test D common groundsel; assay type: in vivo, Senecio vulgaris; conditions: Preemergence, 0 to 100 scale
How it was run: as §1

Green foxtail [2] = assay: Test D green foxtail; assay type: in vivo
How it was run: as §1

Johnson grass = assay: Test D Johnson grass; assay type: in vivo, Sorghum halepense; conditions: Preemergence, 0 to 100 scale
How it was run: as §1

pitted morningglory = assay: Test D pitted morningglory; assay type: in vivo, Ipomoea lacunosa; conditions: Preemergence, 0 to 100 scale
How it was run: as §1

large crabgrass = assay: Test D large crabgrass; assay type: in vivo, Digitaria sanguinalis; conditions: Preemergence, 0 to 100 scale
How it was run: as §1

surinam grass = assay: Test D surinam grass; assay type: in vivo, Brachiaria decumbens; conditions: Preemergence, 0 to 100 scale
How it was run: as §1

sandbur = assay: Test D sandbur; assay type: in vivo, Cenchrus echinatus; conditions: Preemergence, 0 to 100 scale
How it was run: as §1

goosegrass = assay: Test D goosegrass; assay type: in vivo, Eleusine indica; conditions: Preemergence, 0 to 100 scale
How it was run: as §1

dallisgrass = assay: Test D dallisgrass; assay type: in vivo, Paspalum dilatatum; conditions: Preemergence, 0 to 100 scale
How it was run: as §1

[3] = Rate 16 g/ha, 0 no injury, 100 complete control
[4] = Rate 32 g/ha, 0 no injury, 100 complete control
[5] = Rate 64 g/ha, 0 no injury, 100 complete control
[6] = Rate 125 g/ha, 0 no injury, 100 complete control
[7] = Rate 64 g/ha, Preemergence; 0 to 100 scale, 0 no injury, 100 complete control
[8] = Rate 125 g/ha, Preemergence; 0 to 100 scale, 0 no injury, 100 complete control

Structure (SMILES): C=CCn1c(=O)on(C(=O)N(c2ccccc2)C(C)C)c1=O [Compound 93]
- Plant response rating, Alexandergrass (Alexandergrass; [3]): 0
- Plant response rating, Alexandergrass (Alexandergrass; [4]): 10
- Plant response rating, Alexandergrass (Alexandergrass; [5]): 30
- Plant response rating, Alexandergrass (Alexandergrass; [6]): 85
- Plant response rating, Alexandergrass (Alexandergrass; Rate 250 g/ha): 100
- Plant response rating, Alexandergrass (Alexandergrass; Rate 500 g/ha): 100
- Plant response rating, Tall Mallow (tall mallow; [3]): 0
- Plant response rating, Tall Mallow (tall mallow; [4]): 0
- Tall Mallow plant response rating (tall mallow; [5]): 0
- Tall Mallow plant response rating (tall mallow; [6]): 30
- Plant response rating, Tall Mallow (tall mallow; Rate 250 g/ha): 90
- Plant response rating, Tall Mallow (tall mallow; Rate 500 g/ha): 98
- Plant response rating, Guineagrass (guineagrass; [3]): 65
- Plant response rating, Guineagrass (guineagrass; [4]): 75
- Plant response rating, Guineagrass (guineagrass; [5]): 100
- Plant response rating, Guineagrass (guineagrass; [6]): 100
- Plant response rating, Guineagrass (guineagrass; Rate 250 g/ha): 100
- Plant response rating, Guineagrass (guineagrass; Rate 500 g/ha): 100
- Plant response rating, Green foxtail (Green foxtail [1]; Rate 250 g/ha): 100
- Plant response rating, Green foxtail (Green foxtail [1]; Rate 500 g/ha): 100
- Plant response rating, Purple nutsedge (purple nutsedge; [3]): 0
- Plant response rating, Purple nutsedge (purple nutsedge; [4]): 0
- Purple nutsedge plant response rating (purple nutsedge; [5]): 20
- Purple nutsedge plant response rating (purple nutsedge; [6]): 0
- Plant response rating, Purple nutsedge (purple nutsedge; Rate 250 g/ha): 30
- Plant response rating, Purple nutsedge (purple nutsedge; Rate 500 g/ha): 100
- Plant response rating, C. ragweed (common ragweed; [3]): 0
- Plant response rating, C. ragweed (common ragweed; [4]): 0
- Plant response rating, C. ragweed (common ragweed; [5]): 0
- Plant response rating, C. ragweed (common ragweed; [6]): 10
- Plant response rating, C. ragweed (common ragweed; Rate 250 g/ha): 0
- Plant response rating, C. ragweed (common ragweed; Rate 500 g/ha): 80
- Plant response rating, Itchgrass (itchgrass; [3]): 50
- Plant response rating, Itchgrass (itchgrass; [4]): 60
- Plant response rating, Itchgrass (itchgrass; [5]): 60
- Plant response rating, Itchgrass (itchgrass; [6]): 75
- Plant response rating, Itchgrass (itchgrass; Rate 250 g/ha): 90
- Plant response rating, Itchgrass (itchgrass; Rate 500 g/ha): 100
- Plant response rating, Spanishneedles (Spanishneedles; [3]): 0
- Plant response rating, Spanishneedles (Spanishneedles; [4]): 0
- Spanishneedles plant response rating (Spanishneedles; [5]): 0
- Spanishneedles plant response rating (Spanishneedles; [6]): 10
- Plant response rating, Spanishneedles (Spanishneedles; Rate 500 g/ha): 45
- Plant response rating, Com. groundsel (common groundsel; [3]): 0
- Plant response rating, Com. groundsel (common groundsel; [4]): 0
- Plant response rating, Com. groundsel (common groundsel; [5]): 0
- Plant response rating, Com. groundsel (common groundsel; [6]): 35
- Plant response rating, Com. groundsel (common groundsel; Rate 250 g/ha): 0
- Plant response rating, Com. groundsel (common groundsel; Rate 500 g/ha): 100
- Plant response rating, Green foxtail (Green foxtail [2]; Preemergence; Rate 16 g/ha; 0 to 100 scale, 0 no injury, 100 complete control): 65
- Plant response rating, Green foxtail (Green foxtail [2]; Preemergence; Rate 32 g/ha; 0 to 100 scale, 0 no injury, 100 complete control): 75
- Plant response rating, Green foxtail (Green foxtail [2]; Rate 16 g/ha; Preemergence; 0 to 100 scale, 0 no injury, 100 complete control): 65
- Plant response rating, Green foxtail (Green foxtail [2]; Rate 32 g/ha; Preemergence; 0 to 100 scale, 0 no injury, 100 complete control): 0
- Green foxtail plant response rating (Green foxtail [2]; [7]): 100
- Plant response rating, Green foxtail (Green foxtail [2]; [7]): 100
- Green foxtail plant response rating (Green foxtail [2]; [8]): 100
- Plant response rating, Green foxtail (Green foxtail [2]; [8]): 100
- Plant response rating, Green foxtail (Green foxtail [2]; Rate 250 g/ha; Preemergence; 0 to 100 scale): 100
- Plant response rating, Green foxtail (Green foxtail [2]; Rate 500 g/ha, Preemergence; 0 to 100 scale): 100
- Plant response rating, Johnsongrass (Johnson grass; [3]): 0
- Plant response rating, Johnsongrass (Johnson grass; [4]): 0
- Plant response rating, Johnsongrass (Johnson grass; [5]): 40
- Plant response rating, Johnsongrass (Johnson grass; [6]): 75
- Plant response rating, Johnsongrass (Johnson grass; Rate 250 g/ha): 95
- Plant response rating, Johnsongrass (Johnson grass; Rate 500 g/ha): 85
- Plant response rating, P. morninglory (pitted morningglory; [3]): 0
- Plant response rating, P. morninglory (pitted morningglory; [4]): 0
- Plant response rating, P. morninglory (pitted morningglory; [5]): 0
- Plant response rating, P. morninglory (pitted morningglory; [6]): 0
- Plant response rating, P. morninglory (pitted morningglory; Rate 250 g/ha): 0
- Plant response rating, P. morninglory (pitted morningglory; Rate 500 g/ha): 20
- Plant response rating, Large crabgrass (large crabgrass; [3]): 90
- Plant response rating, Large crabgrass (large crabgrass; [4]): 98
- Plant response rating, Large crabgrass (large crabgrass; [5]): 98
- Plant response rating, Large crabgrass (large crabgrass; [6]): 100
- Plant response rating, Large crabgrass (large crabgrass; Rate 250 g/ha): 100
- Plant response rating, Large crabgrass (large crabgrass; Rate 500 g/ha): 100
- Plant response rating, Surinam grass (surinam grass; [3]): 0
- Plant response rating, Surinam grass (surinam grass; [4]): 0
- Surinam grass plant response rating (surinam grass; [5]): 85
- Surinam grass plant response rating (surinam grass; [6]): 90
- Plant response rating, Surinam grass (surinam grass; Rate 250 g/ha): 98
- Plant response rating, Surinam grass (surinam grass; Rate 500 g/ha): 100
- Plant response rating, Sandbur (sandbur; [3]): 0
- Plant response rating, Sandbur (sandbur; [4]): 0
- Sandbur plant response rating (sandbur; [5]): 65
- Sandbur plant response rating (sandbur; [6]): 65
- Plant response rating, Sandbur (sandbur; Rate 250 g/ha): 100
- Plant response rating, Sandbur (sandbur; Rate 500 g/ha): 100
- Plant response rating, Goosegrass (goosegrass; [3]): 65
- Plant response rating, Goosegrass (goosegrass; [4]): 98
- Plant response rating, Goosegrass (goosegrass; [5]): 98
- Plant response rating, Goosegrass (goosegrass; [6]): 100
- Plant response rating, Goosegrass (goosegrass; Rate 250 g/ha): 100
- Plant response rating, Goosegrass (goosegrass; Rate 500 g/ha): 100
- Plant response rating, Dallisgrass (dallisgrass; [3]): 60
- Plant response rating, Dallisgrass (dallisgrass; [4]): 98
- Plant response rating, Dallisgrass (dallisgrass; [5]): 98
- Plant response rating, Dallisgrass (dallisgrass; [6]): 98
- Plant response rating, Dallisgrass (dallisgrass; Rate 250 g/ha): 100
- Plant response rating, Dallisgrass (dallisgrass; Rate 500 g/ha): 100
